Data reported in patent US20250043290A1, “RNA SEQUENCES THAT INDUCE FLUORESCENCE OF SMALL MOLECULE FLUOROPHORES, MOLECULAR COMPLEXES, SENSORS, AND METHODS OF USE THEREOF” (CORNELL UNIVERSITY, priority 2021, published 2025).
Like-named read-outs stand apart in the source and are kept apart here. Marks after values point to notes of the source that are not given here. Each block holds one molecule with its values, some of them ahead of it.

Key:
[1] = Photophysical properties of fluorophores and RNA-fluorophore complexes (Squash study); format: physicochemical
Description: All RNAs used for in vitro studies (except the initial hits from SELEX and the DE2-6 mutants) were purified using 8% denaturing PAGE (7M urea) and eluted in 0.3 M NaOAc (pH 5.2) overnight. The RNA was ethanol precipitated and quantified using absorbance in a NanoDrop 2000 spectrometer. All in vitro RNA properties were measured in 40 mM HEPES-KOH (pH 7.4), 100 mM KCl, 0.5 mM MgCl2 buffer unless specified.
Absorption, excitation, and emission spectra were measured using conditions where the RNA is in excess and the fluorophore is limiting to ensure that no free fluorophore contributes to the absorbance or fluorescence signal (FIGS. 7A-7D).
All quantum yields were determined by comparing each RNA-fluorophore complex with Broccli-DFHBI-1T or Corn-DFHO. All measurements for quantum yield were taken in the presence of excess RNA (10 μM final) compared to the fluorophores (0.2 μM final) to avoid interference from unbound fluorophore. The integral of the emission spectra for each Squash-fluorophore complex was compared with the corresponding integrals for Broccoli or Corn to calculate the quantum yield.

[2] = data from Song et al., cited from earlier work
HEK293T cells = assay: RNA assemblies of multivalent Corn or Beetroot in cells; format: cell-based; details: circular RNA, means±s.d.
Description: FIGS. 33A-33C provide the dissociation constant (Kd) of Beetroot homodimer. […] These RNAs were incubated at 20° C. for 12 hours and then analyzed using non-denaturing gel electrophoresis (FIG. 33A). The fraction of Beetroot monomer (FIG. 33B) and Beetroot dimer (FIG. 33C) were quantified after SYBR Gold staining. […] The RNA band marked with an asterisk (*) reflects an RNA side product from in vitro transcription. The same side product band was also observed in FIGS. 27B-27C. Quantification shown in […] is based on two independent experiments. FIG. 33D are images showing genetic encoding of simple macromolecular RNA assemblies in cells using Corn when circular RNAs containing 3 and 5 copies of Corn were expressed in HEK293T cells. Clusters of these Corn-containing RNAs were observed as large intracellular puncta. Data shown here is a representative image from three independent cell cultures. Scale bar, 20 μm. FIG. 33E is a graph showing the quantification of the fraction of Corn and Beetroot in the cell that accumulates in puncta. As the valency of Corn increases from three to five, the fraction of Corn participating in the RNA assembly increases from 28±12% to 57±14%. Compared to 5× Corn, a fraction of 27±11% of 5× Beetroot are participating in the Beetroot RNA assembly. Values are means±s.d. FIG. 33F is a graph showing quantification of RNA assembly size in cells. Shown are the size distribution of RNA assemblies created using the indicated multivalent Corn or Beetroot RNA. As the valency of Corn increases from three to five, an increase in the median RNA assembly size was noticed from 0.88±0.37 μm to 1.0±0.54 μm. Compared to 5× Corn, 5× Beetroot assembly has a size of 0.68±0.25 μm. Values are means±s.d.
For to live-cell fluorescence imagining experiments, HEK293T cells were seeded into 35-mm imaging dishes precoated with poly-D-lysine (Mattek Corporation, P35GC-1.5-14C) and mouse laminin I (Cultrex, 3401-010-02) with a cell density of 4.5×10^5 cells per dish. On the next day, HEK293T cells were transfected with DNA plasmids as indicated in figures with fluorescence imaging experiments using FuGENE HD. Transfections were performed according FuGENE HD manufacturer's instructions. HEK293T cells were then cultured for two days before imaging.
Prior to imaging experiments, HEK293T cells were incubated with 1 μl of Hoechst 33342 (Thermo Fisher Scientific, H3570) per 2 ml of imaging media (phenol red-free Dulbeco's modified Eagle's medium (Thermo Fisher Scientific 31053-028) supplemented with 10% fetal bovine serum (Corning 35-010-CV), 100 U ml-1 of penicillin and […] of streptomycin, 1× GlutaMAX (Thermo Fisher Scientific, 35050-061) and 1 mM sodium pyruvate (Thermo Fisher Scientific, 11360-070)). For imaging experiments of RNA-fluorophore complex, HEK293T cells were incubated with imaging media supplemented with a final concentration of 10 μM fluorophore (DFHO or DFAME) and 5 mM MgCl2 for one hour prior to imaging.
For all imaging experiments, an epifluorescence inverted microscope (Nikon Eclipse TE2000-E) was used equipped with a CoolSnap HQ2 CCD camera and a 130-W Nikon mercury lamp. The microscope and camera were controlled using the NIS-Elements Advanced Research software (Nikon). Cells were imaged with a 60× oil objective with a numerical aperture of 1.4 (Nikon) at 37° C. A FITC filter cube (with excitation filter 470±20 nm, dichroic mirror 495 nm (long pass) and emission filter 525±25 nm) was used for imaging GFP-N-peptide. A YFP filter cube (with excitation filter 500±12 nm, dichroic mirror 520 nm (long pass) and emission filter 542±13.5 nm) was used for imaging Corn-DFHO complex. A tetramethylrhodamine filter cube (with excitation filter 560±20 nm, dichroic mirror 585 nm (long pass) and emission filter 630±37.5 nm) was used for imaging mCherry-MCP and Beetroot-DFAME complex.

[3] = 40 mM HEPES-KOH (pH 7.4), 100 mM KCl, 0.5 mM MgCl2

Emission maximum [1, 3]: 561 nm
Excitation maximum [1, 3]: 473 nm
Fluorescence quantum yield ([1]; compared with Broccoli-DFHBI-1T or Corn-DFHO): 0.0006
Extinction coefficient ([1]; free DFHO, at 495 nm): 27,000** M^−1cm^−1
Brightness (extinction coefficient × quantum yield) ([1]; relative to Corn): 0.22
Molecule: CN1C(=O)/C(=C/c2cc(F)c(O)c(F)c2)N=C1/C=N/O [DFHO, 4-(3,5-difluoro-4-hydroxybenzylidene)-1-methyl-5-oxo-4,5-dihydro-1H-imidazole-2-carbaldehyde oxime]
Extinction coefficient ([2]; DFHO alone, at 505 nm, pH 7.4 buffer): 19,800 M^−1cm^−1
Emission maximum [2]: 561 nm
Excitation maximum [2]: 473 nm
Fluorescence quantum yield [2]: 0.0006
Brightness (extinction coefficient × quantum yield) ([2]; relative to Corn-DFHO): 0.16

B1: 5× Corn: circular RNA containing five Corn monomers, same as 5X Corn-MS2, SEQ ID NO: 101 (nucleic acid)
chain: AACCAUGCCGACUGAUGGCAGUACCGUAGGCGAAUUCUUGCCAUGUGUAUGUGGGAGGCCCGGAUAGCUCAGUCGGUAGAGCAGCGGCCGCGCGAUUCGAGGAAGGAGGUCUGAGGAGGUCACUGAAUCGCGCGGCCGCGGGUCCAGGGUUCAAGUCCCUGUUCGGGCCUCCCACAUACUCUGAUGAUCCAAAACUGCCCGAGGAUCAUUCAUGGCAAACUCGACGUUCGUCAGACUCCUCGCGAUGUCUAUGCGGGAGGCCCGGAUAGCUCAGUCGGUAGAGCAGCGGCCGCGCGAUUCGAGGAAGGAGGUCUGAGGAGGUCACUGAAUCGCGCGGCCGCGGGUCCAGGGUUCAAGUCCCUGUUCGGGCCUCCCGCAUAGUCUGAUCAUCCAAAACUGCCCGAGGGGAUGAUUCAUCGCGAAUCGCGACGAUCGUCACUACCGGUUCACUUUGUAGACCAGGCUGGUGUACAACUUGCGACUUUGCCAUGUGUAUGUGGGAGGCCCGGAUAGCUCAGUCGGUAGAGCAGCGGCCGCGCGAUUCGAGGAAGGAGGUCUGAGGAGGUCACUGAAUCGCGCGGCCGCGGGUCCAGGGUUCAAGUCCCUGUUCGGGCCUCCCACAUACUCUGAUGAUCCACGCGUAACAUGAGGAUCACCCAUGUCGAGGUACCAUCAUUCAUGGCAAAGUCGCAAGUAUCGGUCAACCUAGUGGGCCCAGUGACGAUCGUCGCCCAUCGCCUUGUGUCUGUUGGAGGCCCGGAUAGCUCAGUCGGUAGAGCAGCGGCCGCGCGAUUCGAGGAAGGAGGUCUGAGGAGGUCACUGAAUCGCGCGGCCGCGGGUCCAGGGUUCAAGUCCCUGUUCGGGCCUCCAACAGACUCUGACGAUCCAAAACUGCCCGAGGGGAUCGUUCAAGGCGAGAGCUCGUCUGACGAACGUCGAACUCGCCGUGUGUGUGUAGGAGGCCCGGAUAGCUCAGUCGGUAGAGCAGCGGCCGCGCGAUUCGAGGAAGGAGGUCUGAGGAGGUCACUGAAUCGCGCGGCCGCGGGUCCAGGGUUCAAGUCCCUGUUCGGGCCUCCUACACACUCUGACGAUCCAAAACUGCCCGAGGGGAUCGUUCACGGCGAACUCACGUCGGUGGAGCUAGCGCCUACGGUACUGCCAUCAGUCGGCGUGGACUGUAG
modifications: circular
Fraction of RNA in the cell that accumulates in puncta (HEK293T cells): 57±14%
RNA assembly size (HEK293T cells): 1.0±0.54 μm

B2: 5× Beetroot: circular RNA comprising 5× Beetroot fused to boxB, SEQ ID NO: 102 (nucleic acid)
chain: AACCAUGCCGACUGAUGGCAGUACCGUAGGCGAAUUCUUGCCAUGUGUAUGUGGGAGGCCCGGAUAGCUCAGUCGGUAGAGCAGCGGCCGGUUAGGCAGAGGUGGGUGGUGUGGAGGAGUAUCUGUCCGGCCGCGGGUCCAGGGUUCAAGUCCCUGUUCGGGCCUCCCACAUACUCUGAUGAUCCAAAACUGCCCGAGGAUCAUUCAUGGCAAACUCGACGUUCGUCAGACUCCUCGCGAUGUCUAUGCGGGAGGCCCGGAUAGCUCAGUCGGUAGAGCAGCGGCCGGUUAGGCAGAGGUGGGUGGUGUGGAGGAGUAUCUGUCCGGCCGCGGGUCCAGGGUUCAAGUCCCUGUUCGGGCCUCCCGCAUAGUCUGAUCAUCCAAAACUGCCCGAGGGGAUGAUUCAUCGCGAAUCGCGACGAUCGUCACUACCGGUGACUCGCUAUCGGUUAUGGCAUGUACAACUUGCGACUUUGCCAUGUGUAUGUGGGAGGCCCGGAUAGCUCAGUCGGUAGAGCAGCGGCCGGUUAGGCAGAGGUGGGUGGUGUGGAGGAGUAUCUGUCCGGCCGCGGGUCCAGGGUUCAAGUCCCUGUUCGGGCCUCCCACAUACUCUGAUGAUCCACGCGUACAUUGGCCCUGAAAAAGGGCAAGCGAGGUACCAUCAUUCAUGGCAAAGUCGCAAGUAUCGGUCAACCUAGUGGGCCCAGUGACGAUCGUCGCCCAUCGCCUUGUGUCUGUUGGAGGCCCGGAUAGCUCAGUCGGUAGAGCAGCGGCCGGUUAGGCAGAGGUGGGUGGUGUGGAGGAGUAUCUGUCCGGCCGCGGGUCCAGGGUUCAAGUCCCUGUUCGGGCCUCCAACAGACUCUGACGAUCCAAAACUGCCCGAGGGGAUCGUUCAAGGCGAGAGCUCGUCUGACGAACGUCGAACUCGCCGUGUGUGUGUAGGAGGCCCGGAUAGCUCAGUCGGUAGAGCAGCGGCCGGUUAGGCAGAGGUGGGUGGUGUGGAGGAGUAUCUGUCCGGCCGCGGGUCCAGGGUUCAAGUCCCUGUUCGGGCCUCCUACACACUCUGACGAUCCAAAACUGCCCGAGGGGAUCGUUCACGGCGAACUCACGUCGGUGGAGCUAGCGCCUACGGUACUGCCAUCAGUCGGCGUGGACUGUAG
modifications: circular
Fraction of RNA in the cell that accumulates in puncta (HEK293T cells): 27±11%
RNA assembly size (HEK293T cells): 0.68±0.25 μm

B3: 3× Corn: circular RNA containing 3 copies of Corn, SEQ ID NO: 100 (nucleic acid)
chain: AACCAUGCCGACUGAUGGCAGUACCGUAGGCGAAUUCUUGCCAUGUGUAUGUGGGAGGCCCGGAUAGCUCAGUCGGUAGAGCAGCGGCCGCGCGAUUCGAGGAAGGAGGUCUGAGGAGGUCACUGAAUCGCGCGGCCGCGGGUCCAGGGUUCAAGUCCCUGUUCGGGCCUCCCACAUACUCUGAUGAUCCAAAACUGCCCGAGGAUCAUUCAUGGCAAACUCGACGUUCGUCAGACUCCUCGCGAUGUCUAUGCGGGAGGCCCGGAUAGCUCAGUCGGUAGAGCAGCGGCCGCGCGAUUCGAGGAAGGAGGUCUGAGGAGGUCACUGAAUCGCGCGGCCGCGGGUCCAGGGUUCAAGUCCCUGUUCGGGCCUCCCGCAUAGUCUGAUCAUCCAAAACUGCCCGAGGGGAUGAUUCAUCGCGAAUCGCGACGAUCGUCACUACCGGCGUCUGACGAACGUCGAACUCGCCGUGUGUGUGUAGGAGGCCCGGAUAGCUCAGUCGGUAGAGCAGCGGCCGCGCGAUUCGAGGAAGGAGGUCUGAGGAGGUCACUGAAUCGCGCGGCCGCGGGUCCAGGGUUCAAGUCCCUGUUCGGGCCUCCUACACACUCUGACGAUCCAAAACUGCCCGAGGGGAUCGUUCACGGCGAACUCACGUCGGUGGAGCUAGCGCCUACGGUACUGCCAUCAGUCGGCGUGGACUGUAG
modifications: circular
Fraction of RNA in the cell that accumulates in puncta (HEK293T cells): 28±12%
RNA assembly size (HEK293T cells): 0.88±0.37 μm
